Results taken from paper PMC8533253, “Bis-thiobarbiturates as Promising Xanthine Oxidase Inhibitors: Synthesis and Biological Evaluation” (Biomedicines, 2021).

What was measured:
Xanthine oxidase (XO) = molecular target: T1, Xanthine oxidase (XO) (Bos taurus, UniProt P80457); assay: XO inhibitory assay (spectrophotometric quantification of uric acid formation at 295 nm); assay type: biochemical; conditions: read-out: XO inhibition (%)
T1 construct: purchased Sigma-Aldrich X4875
Method: XO inhibitory and antioxidant assays were performed in triplicate while antiproliferative assay was conducted in quadruplicate. For each assay, at least two independent experiments were performed. An initial screening at the concentration of 30 μM for all compounds under study was performed in each in vitro study. […] Half-maximal inhibitory concentration (IC50) studies were performed for drugs used as a reference and for the most promising bis-thiobarbiturate in XO inhibitory, antioxidant, and cytotoxicity assays.
The XO inhibitory activity was evaluated by spectrophotometric quantification of uric acid formation. The 50 mM dihydrogen phosphate buffer (pH 7.4) was used to dilute all solutions. For each assay performed, 50 μL of the test solution and 50 μL of the 0.1 U/mL XO (Sigma-Aldrich X4875, St. Louis, MO, USA) solution were added in each well of an Elisa microplate (96 wells) followed by 5 min of incubation at 37 °C. […] The reaction started with the addition of 150 μL of a xanthine solution (420 μM). The absorbance was recorded at a wavelength of 295 nm every minute for 10 min. To obtain only the absorbance associated with uric acid, a solution consisting of 50 μL of the test solution, 150 μL of the xanthine solution, and 50 μL of buffer were used as blank. […] For each compound, the percentage of enzyme inhibition was calculated according to the following formula:% of XO inhibition = [1 − (ABSsample − ABSblank of sample)/ABSnegative control] × 100
(§1) All in vitro results are expressed as mean values ± standard deviation (SD) of at least two independent determinations. The difference between groups was analyzed for each assay by Student’s t-test. The IC50 values were calculated by sigmoidal fitting analysis considering a 95% confidence interval.

[1] = Antioxidant assay, DPPH method; conditions: 60 min
Method: (§2) XO inhibitory and antioxidant assays were performed in triplicate while antiproliferative assay was conducted in quadruplicate. For each assay, at least two independent experiments were performed. An initial screening at the concentration of 30 μM for all compounds under study was performed in each in vitro study. A second screening at 5 μM was performed for compounds that originated an inhibitory potential higher than 80% for the XO activity at 30 μM. Half-maximal inhibitory concentration (IC50) studies were performed for drugs used as a reference and for the most promising bis-thiobarbiturate in XO inhibitory, antioxidant, and cytotoxicity assays.
Antioxidant potential was spectrophotometrically evaluated by the 2,2-diphenyl-1-picrylhydrazyl (DPPH, Sigma-Aldrich, St. Louis, MO, USA) method. All solutions and dilutions were prepared in 99.5% ethanol before each experiment. For each assay, 100 μL of the test solution and 100 μL of DPPH solution (0.2 mM) were added to each well of a 96 wells Elisa microplate. […] After 60 min of incubation in dark at rt, the capacity of each compound to reduce DPPH was followed by measuring the absorbance at 517 nm. Ethanol was used as a negative control and Trolox as the positive control. To discount the absorbance of each compound at 517 nm, a blank was performed with 100 μL of each test compound and 100 μL of ethanol. The antioxidant capacity of each sample was calculated according to the following formula:% DPPH scavenging = [1 − (ABSsample − ABSblank of sample)/ABSnegative control] × 100
as §1

[2] = Cytotoxicity assay (MTT) on NHDF; assay type: cell-based, human; conditions: human, NHDF cells (non-tumor human dermal fibroblasts), 30 µM, 72 h, MTT; read-out: Cytotoxicity (% cell viability at 30 µM) NHDF
Method: as §2
(§3) The cytotoxic potential of the compounds being studied was evaluated by quantifying the extent of the reduction of 3-(4,5-dimethylthiazol-2-yl)-2,5-diphenyltetrazolium bromide (MTT, VWR, Radnor, PA, USA) on tumor cell lines of the colon (Caco-2) and breast (MCF-7) adenocarcinoma and non-tumor human dermal fibroblasts (NHDF). All cell lines were obtained from the American Type Culture Collection (ATCC, Manassas, VA, USA) and were maintained in 75 cm^2 culture flasks in a humidified air incubator with 5% CO2 at 37 °C. NHDF cells have grown in RPMI 1640 medium (Sigma-Aldrich, St. Louis, MO, USA) supplemented with 10% fetal bovine serum (FBS), 10 mM 4-(2-hydroxyethyl)-1-piperazineethanesulfonic acid (HEPES), 2 mM L-glutamine, 1 mM sodium pyruvate, and 1% antibiotic/antimycotic (Ab: 10,000 units/mL penicillin G, […] streptomycin and 25 μg/mL amphotericin B). MCF-7 cells were cultured in high-glucose Dulbecco’s modified Eagle medium (DMEM, Sigma-Aldrich, St. Louis, MO, USA) supplemented with 10% FBS, and 1% Ab. The Caco-2 cell line was cultured in a high glucose DMEM supplemented with 20% FBS and 1% of the antibiotic mixture (Sp: 10,000 units/mL penicillin G and […] of streptomycin). For the assay, cells were seeded in 96-well plates (2 × 10^4 cells/mL) in the culture medium. After 48 h of adherence, cells were treated with the test solutions and incubated for 72 h. […] Untreated cells were used as a negative control and 5-FU as the positive control. Following incubation, the medium was removed and replaced with a fresh incomplete culture medium (without FBS and Ab or Sp) and MTT solution [5 mg/mL in phosphate buffer saline (PBS)]. After further incubation for 4 h at 37 °C, the medium with MTT was removed, formazan crystals were dissolved in DMSO, and the absorbance was read at 570 nm. Results were expressed as the relative cell proliferation in comparison with the negative control cells.
as §1

[3] = Cytotoxicity/antiproliferative assay (MTT) on Caco-2; assay type: cell-based; conditions: human, read-out: Cytotoxicity (% cell viability at 30 µM) Caco-2
Method: as §2, §3, §1

[4] = Cytotoxicity/antiproliferative assay (MTT) on MCF-7; assay type: cell-based; conditions: human, MCF-7 cells (breast adenocarcinoma), read-out: Cytotoxicity (% cell viability at 30 µM) MCF-7
Method: as §2, §3, §1

T1 sequence (P80457 whole entry): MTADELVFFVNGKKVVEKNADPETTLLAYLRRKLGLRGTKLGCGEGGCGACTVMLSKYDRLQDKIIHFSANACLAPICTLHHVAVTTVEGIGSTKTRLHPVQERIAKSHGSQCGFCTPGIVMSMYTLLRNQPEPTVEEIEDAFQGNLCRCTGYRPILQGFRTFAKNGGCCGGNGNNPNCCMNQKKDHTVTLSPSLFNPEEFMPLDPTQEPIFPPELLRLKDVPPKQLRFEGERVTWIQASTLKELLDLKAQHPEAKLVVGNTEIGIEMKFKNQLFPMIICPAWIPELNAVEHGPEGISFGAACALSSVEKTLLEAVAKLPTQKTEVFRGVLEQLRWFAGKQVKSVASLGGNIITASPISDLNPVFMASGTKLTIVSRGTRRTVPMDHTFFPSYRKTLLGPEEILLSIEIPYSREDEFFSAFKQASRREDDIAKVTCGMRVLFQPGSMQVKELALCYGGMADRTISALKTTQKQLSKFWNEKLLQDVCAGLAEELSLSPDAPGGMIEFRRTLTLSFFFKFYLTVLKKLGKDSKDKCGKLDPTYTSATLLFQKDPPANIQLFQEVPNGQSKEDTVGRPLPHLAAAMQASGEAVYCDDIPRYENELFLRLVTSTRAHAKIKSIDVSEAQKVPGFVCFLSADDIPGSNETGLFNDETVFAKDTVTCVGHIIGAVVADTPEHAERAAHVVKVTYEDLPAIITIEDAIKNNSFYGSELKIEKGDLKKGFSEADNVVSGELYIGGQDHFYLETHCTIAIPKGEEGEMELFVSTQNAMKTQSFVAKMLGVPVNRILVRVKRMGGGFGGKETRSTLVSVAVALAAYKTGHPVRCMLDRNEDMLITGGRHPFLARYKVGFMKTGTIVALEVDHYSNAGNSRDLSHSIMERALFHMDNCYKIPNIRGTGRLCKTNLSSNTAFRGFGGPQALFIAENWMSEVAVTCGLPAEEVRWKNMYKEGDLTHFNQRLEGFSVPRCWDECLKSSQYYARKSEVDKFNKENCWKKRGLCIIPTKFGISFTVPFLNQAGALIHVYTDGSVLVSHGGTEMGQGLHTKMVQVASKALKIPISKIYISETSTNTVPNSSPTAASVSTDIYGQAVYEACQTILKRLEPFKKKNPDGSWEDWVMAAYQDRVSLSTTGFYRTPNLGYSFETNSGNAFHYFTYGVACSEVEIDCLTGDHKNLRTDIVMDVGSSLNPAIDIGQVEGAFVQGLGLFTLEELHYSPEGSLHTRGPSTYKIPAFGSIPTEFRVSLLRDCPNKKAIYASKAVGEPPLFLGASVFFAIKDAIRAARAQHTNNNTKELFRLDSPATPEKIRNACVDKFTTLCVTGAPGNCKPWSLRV

| Structure (SMILES) | melting point | inhibition at 5 µM (Xanthine oxidase (XO)) [%] | inhibition at 30 µM (Xanthine oxidase (XO)) [%] | DPPH (% scavenging at 30 µM) [1] [%] | viability at 72 h, 30 µM [2] [%] | viability at 72 h, 30 µM [3] [%] | viability at 72 h, 30 µM [4] [%] | IC50 ([1]; read-out: DPPH Scavenging IC50) [µM] |
| --- | --- | --- | --- | --- | --- | --- | --- | --- |
| O=c1[nH]c(O)c(C(c2ccc([N+](=O)[O-])cc2)c2c(O)[nH]c(=O)[nH]c2=O)c(=O)[nH]1 | 227 °C (dec.) |  |  |  |  |  |  |  |
| Oc1ncnc2[nH]ncc12 [Allo, allopurinol, reference compound] |  | 26.9 ± 0.82 | 88.5 | 0.48 ± 0.21 |  |  |  |  |
| CCn1c(O)c(C(c2ccccc2)c2c(O)n(CC)c(=S)n(CC)c2=O)c(=O)n(CC)c1=S [Compound 3, 5,5′-(Phenylmethylene)bis(1,3-diethyl-6-hydroxy-2-thioxo-2,3-dihydropyrimidin-4(1H)-one)] | 177 to 179 °C | 10.4 | 80.2 | 34.58 ± 0.96 | 88.7 ± 1.4 | 91.2 ± 9.87 | 90 ± 5.33 |  |
| CCn1c(O)c(C(c2ccc(C)cc2)c2c(O)n(CC)c(=S)n(CC)c2=O)c(=O)n(CC)c1=S [Compound 4, 5,5′-(p-Tolymethylene)bis(1,3-diethyl-6-hydroxy-2-thioxo-2,3-dihydropyrimidin-4(1H)-one)] | 163 to 164 °C |  | 36.5 | 42.64 ± 0.81 | 95.6 ± 7.26 | 98.6 ± 5.7 | 90.6 ± 3.92 |  |
| CCn1c(O)c(C(c2ccc(C#N)cc2)c2c(O)n(CC)c(=S)n(CC)c2=O)c(=O)n(CC)c1=S [Compound 5, 4-(Bis(1,3-diethyl-6-hydroxy-4-oxo-2-thioxo-1,2,3,4-tetrtahydropyrimidin-5-yl)methyl)benzonitrile] | 199 to 200 °C | 52.9 | 86.1 | 34.76 ± 1.42 | 86.5 ± 5.92 | 62.5 ± 11.9 | 90.7 ± 4.06 |  |
| O=c1[nH]cc(F)c(=O)[nH]1 [Compound 5-FU, 5-fluorouracil, reference compound] |  |  |  |  | 20.9 ± 0.83 | 37.1 ± 1.51 | 45.9 ± 4.72 |  |
| CCn1c(O)c(C(c2ccc([N+](=O)[O-])cc2)c2c(O)n(CC)c(=S)n(CC)c2=O)c(=O)n(CC)c1=S [Compound 6, 5,5′-((4-Nitrophenyl)methylene)bis(1,3-diethyl-6-hydroxy-2-thioxo-2,3-dihydropirimidin-4(1H)-one)] | 202 to 204 °C | 56.8 | 92.2 | 34.99 ± 1.32 | 99.8 ± 5.43 | 100 ± 4.45 | 91.7 ± 1.48 |  |
| O=c1[nH]c(=S)[nH]c(O)c1C(c1ccc([N+](=O)[O-])cc1)c1c(O)[nH]c(=S)[nH]c1=O [Compound 7, 5,5′-((4-Nitrophenyl)methylene)bis(6-hydroxy-2-thioxo-2,3-dihydropyrimidin-4(1H)-one)] | 225 °C (dec.) |  | 20.9 | 32.41 ± 0.26 | 96.6 ± 4.32 | 97.1 ± 3.63 | 98.7 ± 4.83 |  |
| CCn1c(O)c(C(c2ccc(NC(C)=O)cc2)c2c(O)n(CC)c(=S)n(CC)c2=O)c(=O)n(CC)c1=S [Compound 9, N-(4-(Bis(1,3-diethyl-6-hydroxy-4-oxo-2-thioxo-1,2,3,4-tetrahydropyrimidin-5-yl)methyl)phenyl)acetamide] | 178 to 179 °C |  | 45.6 | 39.63 ± 2.26 | 81.3 ± 8.87 | 67.5 ± 9.4 | 90.2 ± 5.7 |  |
| CCn1c(O)c(C(c2ccc(OC)cc2)c2c(O)n(CC)c(=S)n(CC)c2=O)c(=O)n(CC)c1=S [Compound 10, 5,5′-((4-Methoxyphenyl)methylene)bis(1,3-diethyl-6-hydroxy-2-thioxo-2,3-dihydropyrimidin-4(1H)-one)] | 139 to 140 °C |  | 23.5 | 38.12 ± 1.56 |  | 62.6 ± 7.74 | 100 ± 13 |  |
| CCn1c(O)c(C(c2cccc(O)c2)c2c(O)n(CC)c(=S)n(CC)c2=O)c(=O)n(CC)c1=S [Compound 12, 5,5′-((3-Hydroxyphenyl)methylene)bis(1,3-diethyl-6-hydroxy-2-thioxo-2,3-dihydropyrimidin-4(1H)-one)] | 191 to 193 °C |  | 72.2 | 42.92 ± 0.61 | 85.6 ± 7.17 | 90.9 ± 3.84 | 91.7 ± 4.91 |  |
| CCn1c(O)c(C(c2ccccc2[N+](=O)[O-])c2c(O)n(CC)c(=S)n(CC)c2=O)c(=O)n(CC)c1=S [Compound 13, 5,5′-((2-Nitrophenyl)methylene)bis(1,3-diethyl-6-hydroxy-2-thioxo-2,3-dihydropyrimidin-4(1H)-one)] | 172 to 173 °C | 37.4 | 89.7 | 29.90 ± 0.50 | 75.8 ± 2.41 | 95.4 ± 4.17 | 98.2 ± 3.25 |  |
| CCn1c(O)c(C(c2ccc(N(C)C)cc2[N+](=O)[O-])c2c(O)n(CC)c(=S)n(CC)c2=O)c(=O)n(CC)c1=S [Compound 14, 5,5′-((4-(Dimethylamino)-2-nitrophenyl)methylene)bis(1,3-diethyl-6-hydroxy-2-thioxo-2,3-dihydropyrimidin-4(1H)-one)] | 143 to 145 °C | 56.3 ± 1.21 | 90.7 ± 0.71 | 28.04 ± 0.25 | 80.1 ± 7.69 | 97.2 ± 2.97 | 88.1 ± 3.25 |  |
| Cc1nc(-c2ccc(OCC(C)C)c(C#N)c2)sc1C(=O)O [Febuxostat, febuxostat, reference compound] |  | 93.9 ± 2.84 | 95 |  |  |  |  |  |
| Cc1c(C)c2c(c(C)c1O)CCC(C)(C(=O)O)O2 (stereo not drawn) [Trolox, reference compound] |  |  |  | 54.86 ± 0.98 |  |  |  | 23.8 ± 2.13 |
